Measurements taken from the NIST ThermoML archive (doi:10.1016/j.jct.2019.02.011).
± gives the expanded uncertainty stated by the source.

Assay: xn = mol fraction of the nth substance listed
Conditions: Liquid, Vibrating tube method

COC(=O)OC [dimethyl carbonate] + CO
mass density [kg/m3]
Conditions	100 kPa	5000 kPa	10000 kPa	15000 kPa	20000 kPa	25000 kPa	30000 kPa	35000 kPa	40000 kPa
298.15 K, x1 = 0.0253	–	–	–	–	–	822.44 ± 1.4	826.09 ± 1.4	829.61 ± 1.4	832.77 ± 1.4
298.15 K, x1 = 0.0503	–	–	–	–	–	836.02 ± 1.4	839.68 ± 1.4	843.21 ± 1.4	846.39 ± 1.4
298.15 K, x1 = 0.0745	–	–	–	–	–	848.53 ± 1.4	852.21 ± 1.4	855.74 ± 1.4	858.95 ± 1.4
298.15 K, x1 = 0.101	–	–	–	–	–	861.5 ± 1.4	865.23 ± 1.4	868.78 ± 1.4	872.01 ± 1.4
298.15 K, x1 = 0.1502	–	–	–	–	–	883.85 ± 1.4	887.6 ± 1.4	891.17 ± 1.4	894.43 ± 1.4
298.15 K, x1 = 0.2059	–	–	–	–	–	906.93 ± 1.4	910.69 ± 1.4	914.23 ± 1.4	917.53 ± 1.4
298.15 K, x1 = 0.25	–	–	–	–	–	923.6 ± 1.4	927.38 ± 1.4	930.92 ± 1.4	934.25 ± 1.4
298.15 K, x1 = 0.3004	–	–	–	–	–	941.13 ± 1.4	944.97 ± 1.5	948.53 ± 1.5	951.89 ± 1.5
298.15 K, x1 = 0.3426	–	–	–	–	–	954.69 ± 1.5	958.54 ± 1.5	962.11 ± 1.5	965.49 ± 1.5
298.15 K, x1 = 0.3984	–	–	–	–	–	971.23 ± 1.5	975.08 ± 1.5	978.67 ± 1.5	982.08 ± 1.5
298.15 K, x1 = 0.4514	–	–	–	–	–	985.66 ± 1.5	989.52 ± 1.5	993.12 ± 1.5	996.55 ± 1.5
298.15 K, x1 = 0.5054	–	–	–	–	–	999.17 ± 1.5	1003.04 ± 1.5	1006.64 ± 1.5	1010.1 ± 1.5
298.15 K, x1 = 0.5509	–	–	–	–	1005.74 ± 1.5	1009.72 ± 1.5	1013.59 ± 1.5	1017.21 ± 1.5	1020.68 ± 1.5
298.15 K, x1 = 0.6002	–	–	–	–	1016.28 ± 1.5	1020.27 ± 1.5	1024.16 ± 1.5	1027.78 ± 1.5	1031.27 ± 1.5
298.15 K, x1 = 0.6469	–	–	–	–	1025.6 ± 1.5	1029.6 ± 1.5	1033.49 ± 1.5	1037.12 ± 1.5	1040.63 ± 1.5
298.15 K, x1 = 0.6993	–	–	–	–	1035.37 ± 1.5	1039.38 ± 1.5	1043.27 ± 1.5	1046.86 ± 1.5	1050.38 ± 1.5
298.15 K, x1 = 0.7496	–	–	–	–	1044.11 ± 1.5	1048.12 ± 1.5	1052.02 ± 1.5	1055.62 ± 1.5	1059.15 ± 1.6
298.15 K, x1 = 0.799	–	–	–	–	1052.15 ± 1.5	1056.12 ± 1.5	1060.03 ± 1.6	1063.63 ± 1.6	1067.18 ± 1.6
298.15 K, x1 = 0.837	–	–	–	–	1058.02 ± 1.5	1061.99 ± 1.6	1065.9 ± 1.6	1069.51 ± 1.6	1073.07 ± 1.6
298.15 K, x1 = 0.9093	–	–	–	–	1068.61 ± 1.6	1072.59 ± 1.6	1076.46 ± 1.6	1080.07 ± 1.6	1083.65 ± 1.6
298.15 K, x1 = 0.9239	–	–	–	–	1070.65 ± 1.6	1074.63 ± 1.6	1078.5 ± 1.6	1082.11 ± 1.6	1085.7 ± 1.6
298.15 K, x1 = 0.9575	–	–	–	–	1075.22 ± 1.6	1079.21 ± 1.6	1083.09 ± 1.6	1086.7 ± 1.6	1090.29 ± 1.6
298.15 K, x1 = 0.9861	–	–	–	–	1079.06 ± 1.6	1083.05 ± 1.6	1086.92 ± 1.6	1090.54 ± 1.6	1094.14 ± 1.6
298.15 K, x1 = 1	–	–	–	–	1080.9 ± 0.6	1084.89 ± 0.61	1088.82 ± 0.62	1092.44 ± 0.64	1096.04 ± 0.65
303.15 K, x1 = 0.0253	796.3 ± 1.4	801.03 ± 1.4	805.57 ± 1.4	810.1 ± 1.4	814.43 ± 1.4	818.36 ± 1.4	822.05 ± 1.4	–	–
303.15 K, x1 = 0.0503	809.73 ± 1.4	814.5 ± 1.4	819.05 ± 1.4	823.59 ± 1.4	827.93 ± 1.4	831.86 ± 1.4	835.56 ± 1.4	–	–
303.15 K, x1 = 0.0745	822.09 ± 1.4	826.87 ± 1.4	831.44 ± 1.4	835.97 ± 1.4	840.32 ± 1.4	844.26 ± 1.4	848.02 ± 1.4	–	–
303.15 K, x1 = 0.101	834.96 ± 1.4	839.75 ± 1.4	844.32 ± 1.4	848.86 ± 1.4	853.22 ± 1.4	857.21 ± 1.4	860.97 ± 1.4	–	–
303.15 K, x1 = 0.1502	857.02 ± 1.4	861.81 ± 1.4	866.4 ± 1.4	870.99 ± 1.4	875.37 ± 1.4	879.38 ± 1.4	883.14 ± 1.4	–	–
303.15 K, x1 = 0.2059	879.85 ± 1.4	884.65 ± 1.4	889.26 ± 1.4	893.85 ± 1.4	898.26 ± 1.4	902.32 ± 1.4	906.14 ± 1.4	–	–
303.15 K, x1 = 0.25	896.36 ± 1.4	901.21 ± 1.4	905.83 ± 1.4	910.43 ± 1.4	914.79 ± 1.4	918.87 ± 1.4	922.69 ± 1.4	–	–
303.15 K, x1 = 0.3004	913.71 ± 1.4	918.57 ± 1.4	923.21 ± 1.4	927.81 ± 1.4	932.19 ± 1.4	936.27 ± 1.4	940.09 ± 1.4	–	–
303.15 K, x1 = 0.3426	927.12 ± 1.4	931.98 ± 1.4	936.63 ± 1.4	941.23 ± 1.4	945.62 ± 1.5	949.71 ± 1.5	953.54 ± 1.5	–	–
303.15 K, x1 = 0.3984	943.53 ± 1.4	948.4 ± 1.5	953.06 ± 1.5	957.62 ± 1.5	962.02 ± 1.5	966.12 ± 1.5	969.95 ± 1.5	–	–
303.15 K, x1 = 0.4514	957.9 ± 1.5	962.78 ± 1.5	967.4 ± 1.5	971.96 ± 1.5	976.32 ± 1.5	980.43 ± 1.5	984.26 ± 1.5	–	–
303.15 K, x1 = 0.5054	971.35 ± 1.5	976.23 ± 1.5	980.81 ± 1.5	985.37 ± 1.5	989.75 ± 1.5	993.91 ± 1.5	997.75 ± 1.5	–	–
303.15 K, x1 = 0.5509	981.85 ± 1.5	986.74 ± 1.5	991.33 ± 1.5	995.89 ± 1.5	1000.23 ± 1.5	1004.39 ± 1.5	1008.28 ± 1.5	–	–
303.15 K, x1 = 0.6002	992.37 ± 1.5	997.25 ± 1.5	1001.85 ± 1.5	1006.41 ± 1.5	1010.76 ± 1.5	1014.93 ± 1.5	1018.82 ± 1.5	–	–
303.15 K, x1 = 0.6469	1001.6 ± 1.5	1006.49 ± 1.5	1011.1 ± 1.5	1015.61 ± 1.5	1019.97 ± 1.5	1024.14 ± 1.5	1028.04 ± 1.5	–	–
303.15 K, x1 = 0.6993	1011.29 ± 1.5	1016.13 ± 1.5	1020.75 ± 1.5	1025.26 ± 1.5	1029.62 ± 1.5	1033.8 ± 1.5	1037.7 ± 1.5	–	–
303.15 K, x1 = 0.7496	1019.99 ± 1.5	1024.84 ± 1.5	1029.41 ± 1.5	1033.93 ± 1.5	1038.25 ± 1.5	1042.43 ± 1.5	1046.33 ± 1.5	–	–
303.15 K, x1 = 0.799	1028.01 ± 1.5	1032.86 ± 1.5	1037.44 ± 1.5	1041.96 ± 1.5	1046.28 ± 1.5	1050.47 ± 1.5	1054.37 ± 1.5	–	–
303.15 K, x1 = 0.837	1033.85 ± 1.5	1038.71 ± 1.5	1043.24 ± 1.5	1047.76 ± 1.5	1052.09 ± 1.5	1056.23 ± 1.5	–	–	–
303.15 K, x1 = 0.9093	1044.36 ± 1.5	1049.21 ± 1.5	1053.76 ± 1.5	1058.22 ± 1.6	1062.51 ± 1.6	1066.71 ± 1.6	–	–	–
303.15 K, x1 = 0.9239	1046.39 ± 1.5	1051.25 ± 1.5	1055.79 ± 1.5	1060.26 ± 1.6	1064.55 ± 1.6	1068.75 ± 1.6	–	–	–
303.15 K, x1 = 0.9575	1050.95 ± 1.5	1055.81 ± 1.5	1060.36 ± 1.6	1064.83 ± 1.6	1069.12 ± 1.6	1073.32 ± 1.6	–	–	–
303.15 K, x1 = 0.9861	1054.77 ± 1.5	1059.63 ± 1.6	1064.18 ± 1.6	1068.65 ± 1.6	1072.95 ± 1.6	1077.15 ± 1.6	–	–	–
303.15 K, x1 = 1	1056.61 ± 0.56	1061.47 ± 0.57	1066.02 ± 0.57	1070.49 ± 0.58	1074.79 ± 0.59	1078.99 ± 0.6	–	–	–
